According to article PMC11425824 (ACS Omega, 2024):

How the values were obtained:
CDK1 = CDK1 (Homo sapiens, UniProt P06493); assay: In vitro CDK1 kinase assay; type: biochemical
[1] = cited from earlier work
primary hepatocytes = conditions: cited from earlier work
[2] = cited from earlier work; remark: listed apart in the source

Sequence of CDK1 (P20248 whole entry): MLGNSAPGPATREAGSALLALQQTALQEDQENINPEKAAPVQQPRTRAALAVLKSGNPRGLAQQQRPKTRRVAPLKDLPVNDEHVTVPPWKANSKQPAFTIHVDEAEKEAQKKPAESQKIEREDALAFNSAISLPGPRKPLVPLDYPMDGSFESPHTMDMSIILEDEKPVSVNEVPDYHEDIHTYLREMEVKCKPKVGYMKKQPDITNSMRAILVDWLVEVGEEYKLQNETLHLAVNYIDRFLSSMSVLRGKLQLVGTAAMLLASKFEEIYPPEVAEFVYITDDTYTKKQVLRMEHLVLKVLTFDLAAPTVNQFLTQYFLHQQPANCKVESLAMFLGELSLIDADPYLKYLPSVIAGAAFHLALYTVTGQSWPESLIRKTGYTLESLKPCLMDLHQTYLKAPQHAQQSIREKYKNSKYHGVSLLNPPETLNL
Sequence of CDK1 (P06493 whole entry): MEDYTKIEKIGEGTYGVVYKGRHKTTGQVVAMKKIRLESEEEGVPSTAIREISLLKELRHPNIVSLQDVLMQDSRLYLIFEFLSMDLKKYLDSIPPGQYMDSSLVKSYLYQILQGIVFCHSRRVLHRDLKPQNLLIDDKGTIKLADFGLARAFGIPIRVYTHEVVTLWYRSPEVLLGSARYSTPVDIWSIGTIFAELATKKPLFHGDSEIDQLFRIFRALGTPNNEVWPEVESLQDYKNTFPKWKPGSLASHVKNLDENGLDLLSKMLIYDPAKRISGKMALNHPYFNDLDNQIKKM

O=C1NC(=NCc2cccs2)S/C1=C\c1ccc2ncccc2c1 [RO-3306]
CDK1 activity (CDK1; 1 μM): around 20% | CDK1 inhibition (CDK1; higher concentrations (10 and 100 μM)): 100% | Clearance from the blood plasma [1]: rapid clearance

CCO[C@@H](Cc1ccc(OCCc2ccc(OS(C)(=O)=O)cc2)cc1)C(=O)O [DB_6, tesaglitazar]
IC50 (CDK1): 4.37 µM | Toxicity to primary hepatocytes (primary hepatocytes): no significant toxicity

CC(C)OC(=O)[C@H](C)N[P@](=O)(CO[C@H](C)Cn1cnc2c(N)ncnc21)Oc1ccccc1 [DB_1, tenofovir alafenamide]
IC50 (CDK1): 2.82 µM | Cytotoxicity profile [2]: minimal cytotoxic effects | Mitochondrial toxicity [2]: low potential for mitochondrial toxicity

Cc1cc2cc(Oc3ccnc(Nc4cccc(CS(=O)(=O)NCCN(C)C)c4)n3)ccc2[nH]1 [DB_7, Surufatinib]
IC50 (CDK1): 5.94 µM
